Values belong to the compound of their own block, whether it stands above or below them.
Experiments:
[1] = system: Mus musculus; test: Intravenous hypnotic dose that caused a loss of righting reflex for a minimum period of 30s in 50% of treated mice determined by probit analysis.; format: functional
[2] = molecular target: GABA-A receptor; anion channel; test: In vitro inhibition of [35S]TBPS binding to GABA-A receptor of rat whole brain membranes; format: cell membranes

Compound: COc1cccc(OC)c1OC(=O)C(CCSC)N1CCOCC1 (stereo not given)
HD50 [1]: 26.1 µM/kg

Compound: COC(=O)CC(C(=O)Oc1c(OC)cccc1OC)N1CCCC1 (stereo not given)
HD50 [1]: 77 µM/kg

Compound: COC(=O)CC(C(=O)Oc1c(OC)cc(C)cc1OC)N1CCCC1 (stereo not given)
HD50 [1]: 52 µM/kg

Compound: COCCN(CCOC)C(CC(=O)OC)C(=O)Oc1c(OC)cc(C)cc1OC (stereo not given)
HD50 [1]: 48 µM/kg

Compound: CC[C@H](C(=O)Oc1c(OC)cc(C)cc1OC)N(CCOC)CCOC [ORG-24447]
HD50 [1]: 21.7 µM/kg

Compound: COc1cccc(OC)c1OC(=O)C(CC(=O)N1CCCCC1)N1CCCCC1 (stereo not given)
HD50 [1]: 39 µM/kg

Compound: COCCN(CCOC)C(CCS(C)(=O)=O)C(=O)Oc1c(OC)cccc1OC (stereo not given)
HD50 [1]: >106 µM/kg

Compound: COc1cccc(OC)c1OC(=O)C(CC(=O)N1CCCC1)N1CCCCCC1 (stereo not given)
HD50 [1]: 34 µM/kg

Compound: COCCN(CCOC)C(CC(=O)OC)C(=O)Oc1c(OC)cccc1OC (stereo not given)
HD50 [1]: 48 µM/kg

IC50 [2]: 6.9 µM
Compound: COCCN(CCOC)C(CCSC)C(=O)Oc1c(OC)cc(C)cc1OC (stereo not given)
HD50 [1]: 22.6 µM/kg

Compound: COc1cccc(OC)c1OC(=O)C(CCSC)N1CCCCCCC1 (stereo not given)
HD50 [1]: 35 µM/kg

Compound: CC(C)c1cccc(C(C)C)c1O [PROPOFOL]
HD50 [1]: 68 µM/kg

Compound: COc1cccc(OC)c1OC(=O)C(CCSC)N1CCCC1 (stereo not given)
HD50 [1]: 40 µM/kg

Compound: COc1cccc(OC)c1OC(=O)C(CCS(C)(=O)=O)N1CCOCC1 (stereo not given)
HD50 [1]: 99 µM/kg

Compound: COc1cc(C)cc(OC)c1OC(=O)C(CC(=O)N1CCCC1)N1CCCC1 (stereo not given)
HD50 [1]: 81 µM/kg

IC50 [2]: 14.7 µM
Compound: COC(=O)CC(C(=O)Oc1c(OC)cc(C)cc1OC)N1CCCCC1 (stereo not given)
HD50 [1]: 48 µM/kg

Compound: CCN(CC)C(=O)CC(C(=O)Oc1c(OC)cccc1OC)N1CCOCC1 (stereo not given)
HD50 [1]: 117 µM/kg

Compound: COc1cc(C)cc(OC)c1OC(=O)C(CC[S+](C)[O-])N1CCCC1 (stereo not given)
HD50 [1]: 73 µM/kg

Compound: COc1cc(C)cc(OC)c1OC(=O)C(CC(=O)N1CCOCC1)N1CCOCC1 (stereo not given)
HD50 [1]: >218 µM/kg

IC50 [2]: 4 µM
Compound: COc1cccc(OC)c1OC(=O)C(CCSC)N1CCCCC1 (stereo not given)
HD50 [1]: <25 µM/kg

Compound: COCCN(CCOC)C(CCS(C)(=O)=O)C(=O)Oc1c(OC)cc(C)cc1OC (stereo not given)
HD50 [1]: 77 µM/kg

Compound: COc1cc(C)cc(OC)c1OC(=O)C(CCS(C)(=O)=O)N1CCOCC1 (stereo not given)
HD50 [1]: 108 µM/kg

Compound: COc1cccc(OC)c1OC(=O)C(CC(=O)N1CCOCC1)N1CCOCC1 (stereo not given)
HD50 [1]: >225 µM/kg

Compound: COC(=O)CC(C(=O)Oc1c(OC)cc(C)cc1OC)N1CCOCC1 (stereo not given)
HD50 [1]: 46 µM/kg

IC50 [2]: 6.2 µM
Compound: COc1cc(C)cc(OC)c1OC(=O)C(CCS(C)(=O)=O)N1C=CCCC1 (stereo not given)
HD50 [1]: 39.3 µM/kg

Compound: COc1cc(C)cc(OC)c1OC(=O)C(CC(=O)N1CCCCC1)N1CCCCC1 (stereo not given)
HD50 [1]: 37.5 µM/kg

Compound: COc1cccc(OC)c1OC(=O)C(CC(=O)N1CCCC1)N1CCCC1 (stereo not given)
HD50 [1]: 102 µM/kg

IC50 [2]: 2.7 µM
Compound: COc1cc(C)cc(OC)c1OC(=O)C(CCSC)N1CCCC1 (stereo not given)
HD50 [1]: 31.4 µM/kg

Compound: COC(=O)CC(C(=O)Oc1c(OC)cc(C)cc1OC)N1CCCCCC1 (stereo not given)
HD50 [1]: 26 µM/kg

Compound: CCN(CC)C(=O)CC(C(=O)Oc1c(OC)cc(C)cc1OC)N1CCOCC1 (stereo not given)
HD50 [1]: 38 µM/kg

Compound: COC(=O)CC(C(=O)Oc1c(OC)cccc1OC)N1CCOCC1 (stereo not given)
HD50 [1]: 79 µM/kg

IC50 [2]: 9.7 µM
Compound: COc1cccc(OC)c1OC(=O)C(CCSC)N1CCCCCC1 (stereo not given)
HD50 [1]: 18.2 µM/kg

Compound: COc1cc(C)cc(OC)c1OC(=O)C(CCSC)N1CCOCC1 (stereo not given)
HD50 [1]: 34.8 µM/kg

IC50 [2]: 11.7 µM
Compound: COC(=O)CC(C(=O)Oc1c(OC)cccc1OC)N1CCCCC1 (stereo not given)
HD50 [1]: 26.4 µM/kg

Compound: COc1cc(C)cc(OC)c1OC(=O)C(CC(=O)N1CCCC1)N1CCCCCC1 (stereo not given)
HD50 [1]: 67 µM/kg

IC50 [2]: 4.2 µM
Compound: COC(=O)CC(C(=O)Oc1c(OC)cccc1OC)N1CCCCCC1 (stereo not given)
HD50 [1]: 22.9 µM/kg

Compound: COc1cc(C)cc(OC)c1OC(=O)C(CC[S+](C)[O-])N1CCOCC1 (stereo not given)
HD50 [1]: 299 µM/kg
